Measurements published in patent US7598258B2, “Quinoline derivatives and quinazoline derivatives inhibiting autophosphorylation of macrophage colony stimulating factor receptor” (Kirin Beer Kabushiki Kaisha, priority 2002, dated 2009).

molecular target: T1, mouse c-fms (Mus musculus, UniProt P09581); assay: Inhibition of c-fms autophosphorylation in macrophage-like cell line BAC-1.2F5 by M-CSF stimulation (ELISA); assay type: cell-based; details: BAC-1.2F5 cells, human recombinant M-CSF 50 ng/ml, read-out: c-fms autophosphorylation 50% inhibitory concentration (IC50)
T1 construct: Macrophage-like cell line BAC-1.2F5 which expresses c-fms as a M-CSF receptor on cell membranes; endogenous in cells; host or cells: BAC-1.2F5 mouse macrophage-like cell line
T1 sequence (P09581 20-977): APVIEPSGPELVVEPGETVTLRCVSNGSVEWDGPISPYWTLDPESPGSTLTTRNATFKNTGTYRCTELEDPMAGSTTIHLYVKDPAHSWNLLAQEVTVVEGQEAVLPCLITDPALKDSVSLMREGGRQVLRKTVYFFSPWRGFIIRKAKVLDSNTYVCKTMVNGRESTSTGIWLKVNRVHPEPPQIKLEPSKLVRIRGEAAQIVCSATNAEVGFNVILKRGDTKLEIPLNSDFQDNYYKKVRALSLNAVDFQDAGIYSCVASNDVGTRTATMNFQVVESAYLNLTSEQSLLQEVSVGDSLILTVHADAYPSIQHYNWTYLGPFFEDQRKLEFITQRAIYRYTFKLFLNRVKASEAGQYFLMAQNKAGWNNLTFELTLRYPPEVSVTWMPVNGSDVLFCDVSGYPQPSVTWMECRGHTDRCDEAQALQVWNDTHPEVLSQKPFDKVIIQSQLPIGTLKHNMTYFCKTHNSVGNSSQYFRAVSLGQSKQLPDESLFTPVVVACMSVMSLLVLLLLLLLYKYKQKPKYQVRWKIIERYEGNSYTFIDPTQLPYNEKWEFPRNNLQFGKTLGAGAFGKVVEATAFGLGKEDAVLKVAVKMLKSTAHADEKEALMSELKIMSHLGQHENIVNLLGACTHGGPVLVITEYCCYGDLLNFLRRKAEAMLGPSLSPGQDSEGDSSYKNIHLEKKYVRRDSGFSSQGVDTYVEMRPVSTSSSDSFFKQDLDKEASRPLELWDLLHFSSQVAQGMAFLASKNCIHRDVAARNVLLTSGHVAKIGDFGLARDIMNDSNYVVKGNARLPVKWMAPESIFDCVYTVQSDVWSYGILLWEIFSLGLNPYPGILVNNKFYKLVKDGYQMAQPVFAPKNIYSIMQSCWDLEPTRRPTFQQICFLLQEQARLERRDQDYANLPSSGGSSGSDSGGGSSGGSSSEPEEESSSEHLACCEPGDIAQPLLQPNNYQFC
Method in brief: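 BAC-1.2F5 cells serum-starved (0.1% FCS) 12 h, preincubated with compound 1 h at 37° C, then stimulated 6 min with 50 ng/ml human recombinant M-CSF. Lysates captured on anti-phosphotyrosine plates, detected with anti-c-fms antiserum and peroxidase read-out at 450 nm. IC50 from inhibition normalised between ±M-CSF controls.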

SMILES	IC50 [nM]
COc1cc2nccc(Oc3ccc(NC(=O)N[C@H](C)c4nccs4)cc3)c2cc1OC [Example 79, N-{4-[(6,7-Dimethoxy-4-quinolyl)oxy]phenyl}-N′-[(1R)-1-(1,3-thiazol-2-yl)ethyl]urea]	6.9
COc1cc2nccc(Oc3ccc(NC(=O)NC(C)c4nccs4)cc3OC)c2cc1OC (stereo not shown) [Example 80, N-{4-[(6,7-Dimethoxy-4-quinolyl)oxy]-3-methoxyphenyl}-N′-[1-(1,3-thiazol-2-yl)ethyl]urea]	6.2
COc1cc2nccc(Oc3ccc(NC(=O)N[C@@H](C)c4nccs4)cc3OC)c2cc1OC [Example 81, N-{4-[(6,7-Dimethoxy-4-quinolyl)oxy]-3-methoxyphenyl}-N′-[(1S)-1-(1,3-thiazol-2-yl)ethyl]urea]	6.2
COc1cc2nccc(Oc3ccc(NC(=O)N[C@H](C)c4nccs4)cc3OC)c2cc1OC [Example 82, N-{4-[(6,7-Dimethoxy-4-quinolyl)oxy]-3-methoxyphenyl}-N′-[(1R)-1-(1,3-thiazol-2-yl)ethyl]urea]	8.9
COc1cc2nccc(Oc3ccc(NC(=O)NC(C)c4nccs4)c(C(F)(F)F)c3)c2cc1OC (stereo not shown) [Example 83, N-[4-[(6,7-Dimethoxy-4-quinolyl)oxy]-2-(trifluoromethyl)phenyl]-N′-[1-(1,3-thiazol-2-yl)ethyl]urea]	10.2
COc1cc2nccc(Oc3ccc(NC(=O)N[C@@H](C)c4nccs4)c(C(F)(F)F)c3)c2cc1OC [Example 84, N-[4-[(6,7-Dimethoxy-4-quinolyl)oxy]-2-(trifluoromethyl)phenyl]-N′-[(1S)-1-(1,3-thiazol-2-yl)ethyl]urea]	10.2
COc1cc2nccc(Oc3ccc(NC(=O)N[C@H](C)c4nccs4)c(C(F)(F)F)c3)c2cc1OC [Example 85, N-[4-[(6,7-Dimethoxy-4-quinolyl)oxy]-2-(trifluoromethyl)phenyl]-N′-[(1R)-1-(1,3-thiazol-2-yl)ethyl]urea]	17.4
COc1cc2nccc(Oc3cc(C)c(NC(=O)N[C@@H](C)c4nccs4)cc3C)c2cc1OC [Example 86, N-{4-[(6,7-Dimethoxy-4-quinolyl)oxy]-2,5-dimethylphenyl}-N′-[(1S)-1-(1,3-thiazol-2-yl)ethyl]urea]	12.5
COc1cc2nccc(Oc3cc(C)c(NC(=O)N[C@H](C)c4nccs4)cc3C)c2cc1OC [Example 87, N-{4-[(6,7-Dimethoxy-4-quinolyl)oxy]-2,5-dimethylphenyl}-N′-[(1R)-1-(1,3-thiazol-2-yl)ethyl]urea]	26.5
COc1cc2nccc(Oc3ccc(NC(=O)NC(C)c4nc(C)cs4)c(F)c3)c2cc1OC (stereo not shown) [Example 88, N-{4-[(6,7-Dimethoxy-4-quinolyl)oxy]-2-fluorophenyl}-N′-[1-(4-methyl-1,3-thiazol-2-yl)ethyl]urea]	2.9
COc1cc2nccc(Oc3ccc(NC(=O)NC(C)c4nc(C)cs4)cc3F)c2cc1OC (stereo not shown) [Example 89, N-{4-[(6,7-Dimethoxy-4-quinolyl)oxy]-3-fluorophenyl}-N′-[1-(4-methyl-1,3-thiazol-2-yl)ethyl]urea]	3.1
COc1cc(Oc2ccnc3cc(OC)c(OC)cc23)ccc1NC(=O)NC(C)c1nc(C)cs1 (stereo not shown) [Example 90, N-{4-[(6,7-Dimethoxy-4-quinolyl)oxy]-2-methoxyphenyl}-N′-[1-(4-methyl-1,3-thiazol-2-yl)ethyl]urea]	3.6
COc1cc2nccc(Oc3ccc(NC(=O)NC(C)c4nc(C)cs4)cc3)c2cc1OC (stereo not shown) [Example 91, N-{4-[(6,7-Dimethoxy-4-quinolyl)oxy]phenyl}-N′-[1-(4-methyl-1,3-thiazol-2-yl)ethyl]urea]	3.2
COc1cc2nccc(Oc3ccc(NC(=O)NC(C)c4nc(C)cs4)c(C(F)(F)F)c3)c2cc1OC (stereo not shown) [Example 92, N-[4-[(6,7-Dimethoxy-4-quinolyl)oxy]-2-(trifluoromethyl)phenyl]-N′-[1-(4-methyl-1,3-thiazol-2-yl)ethyl]urea]	8.4
COc1cc2nccc(Oc3cc(C)c(NC(=O)NC(C)c4nc(C)cs4)cc3C)c2cc1OC (stereo not shown) [Example 93, N-{4-[(6,7-Dimethoxy-4-quinolyl)oxy]-2,5-dimethylphenyl}-N′-[1-(4-methyl-1,3-thiazol-2-yl)ethyl]urea]	38.6

Next, values leading:

IC50 [nM]	SMILES
12.6	COc1cc(Oc2ccnc3cc(OC)c(OC)cc23)ccc1NC(=O)NC(C)c1nc(C)c(C)s1 (stereo not shown) [Example 99, N-{4-[(6,7-Dimethoxy-4-quinolyl)oxy]-2-methoxyphenyl}-N′-[1-(4,5-dimethyl-1,3-thiazol-2-yl)ethyl]urea]
15.7	COc1cc2nccc(Oc3ccc(NC(=O)NC(C)c4ncc(C)s4)cc3)c2cc1OC (stereo not shown) [Example 100, N-{4-[(6,7-Dimethoxy-4-quinolyl)oxy]phenyl}-N′-[1-(5-methyl-1,3-thiazol-2-yl)ethyl]urea]
20.1	COc1cc2nccc(Oc3ccc(NC(=O)NC(C)c4ncc(C)s4)c(F)c3)c2cc1OC (stereo not shown) [Example 101, N-{4-[(6,7-Dimethoxy-4-quinolyl)oxy]-2-fluorophenyl}-N′-[1-(5-methyl-1,3-thiazol-2-yl)ethyl]urea]
20.3	COc1cc2nccc(Oc3ccc(NC(=O)NC(C)c4ncc(C)s4)cc3F)c2cc1OC (stereo not shown) [Example 102, N-{4-[(6,7-Dimethoxy-4-quinolyl)oxy]-3-fluorophenyl}-N′-[1-(5-methyl-1,3-thiazol-2-yl)ethyl]urea]
69.6	COc1cc2nccc(Oc3ccc(NC(=O)NC(C)c4ncc(C)s4)c(C)c3)c2cc1OC (stereo not shown) [Example 103, N-{4-[(6,7-Dimethoxy-4-quinolyl)oxy]-2-methylphenyl}-N′-[1-(5-methyl-1,3-thiazol-2-yl)ethyl]urea]
22	COc1cc2nccc(Oc3ccc(NC(=O)NC(C)c4ncc(C)s4)c(C(F)(F)F)c3)c2cc1OC (stereo not shown) [Example 104, N-[4-[(6,7-Dimethoxy-4-quinolyl)oxy]-2-(trifluoromethyl)phenyl]-N′-[1-(5-methyl-1,3-thiazol-2-yl)ethyl]urea]
12.7	COc1cc(Oc2ccnc3cc(OC)c(OC)cc23)ccc1NC(=O)NC(C)c1ncc(C)s1 (stereo not shown) [Example 105, N-{4-[(6,7-Dimethoxy-4-quinolyl)oxy]-2-methoxyphenyl}-N′-[1-(5-methyl-1,3-thiazol-2-yl)ethyl]urea]
